Tests used:
mucus = assay: PAS staining of lung tissue, OVA-induced asthma; type: in vivo, BALB/c mice; conditions: 5 days, vs OVA-sensitized group
Experimental: (§1) In test groups, the animals determined to be healthy during the acclimation period were ranked by measuring the weight, and were randomly grouped so that the average weight of each group was uniform. The animals were divided into a total of 9 groups: a control group; a control group with OVA-induced asthma; a positive control group; groups administered with each of 50 mg/kg, 125 mg/kg and 250 mg/kg of oleic acid; and groups administered with each of 5 mg/kg, 25 mg/kg and 50 mg/kg of palmitic acid. The animals were sensitized via intraperitoneal injection of OVA once a week for 2 weeks after the acclimation period. During 5 days of week 3, dexamethasone (DEX) and the test substances oleic acid and palmitic acid were orally administered in the morning and 5% OVA solution was inhaled in the afternoon. The test substance was orally administered in an amount of 28 μL per weight (g) of the experimental animal, and OVA for sensitization was administered in a constant amount regardless of the weight. After 5 days of administration, autopsy was performed the next day.
Storage of tissue: ½ of the autopsy tissue was frozen quickly in liquid nitrogen, stored in an ultralow-temperature freezer or liquid nitrogen container (about −75 ° C.), and used for PCR/Western blotting, and the remaining ½ was stored in 10% formalin solution and used for histopathology and immunohistochemistry (IHC). […]

[1] = system: eosinophils, mucus and epithelial hyperplasia; assay: H&E staining of lung tissue, OVA-induced asthma; type: in vivo, BALB/c mice; conditions: 5 days, vs OVA-sensitized group
Experimental: as §1, with “day. Storage of tissue: ½ of the autopsy tissue was frozen quickly in liquid nitrogen, stored in an ultralow-temperature freezer or liquid nitrogen container (about −75 ° C.), and used for PCR/Western blotting, and the remaining ½ was stored in 10% formalin solution and used for histopathology and immunohistochemistry (IHC). […]” for “day.”

| SMILES | mucus (PAS staining) (mucus; oleic acid 50, 125, 250 mg/kg oral, FIG. 17) | eosinophils, mucus and epithelial hyperplasia (H&E staining) ([1]; oleic acid 50, 125, 250 mg/kg oral, FIG. 15) | mucus (PAS staining) (mucus; palmitic acid 5, 25, 50 mg/kg oral, FIG. 18) | eosinophils, mucus and epithelial hyperplasia (H&E staining) ([1]; palmitic acid 5, 25, 50 mg/kg oral, FIG. 16) |
| --- | --- | --- | --- | --- |
| CCCCCCCC/C=C\CCCCCCCC(=O)O [oleic acid] | dose-dependently decreased | dose-dependently decreased | – | – |
| CCCCCCCCCCCCCCCC(=O)O [palmitic acid] | – | – | dose-dependently decreased | dose-dependently decreased |
